pIC50: −log10 of the molar value. Counter-ions that a name gives are not always drawn. Like-named read-outs stand apart in the source and are kept apart here. Marks after values point to notes of the source that are not given here. Each block holds one molecule with its values, some of them ahead of it.
Columns and labels:
HEK293 cells = assay: Cytotoxicity on mammalian cells (CCK-8), HEK293; assay type: cell-based; settings: for CC50: HEK293 cell line, 24 h; for pIC50: Homo sapiens, HEK293
Protocol: (§1) Cytotoxicity test of bacterial sensitizers on mammalian cells. Cell viability was assessed by using Cell Counting Kit-8 (CCK-8, Dojindo, Japan). HEK293 or NIH3T3 cells were seeded in a 96-well plate one day before the experiment to reach 80% confluency. Cells were then incubated with various concentration of bacterial sensitizers at 37° C. with 5% CO2 for 24 h, then 10 μL of CCK-8 solution was added to each well, and the plate was incubated for an additional at 37° C. 2 h with 5% CO2. The optical density at 450 nm was recorded by plate reader; and the results were calculated as a percentage of viability compared with the untreated control.

NIH3T3 cells = assay: Cytotoxicity on mammalian cells (CCK-8), NIH3T3; assay type: cell-based; settings: 3T3 cell line; 24 h
Protocol: as §1

MRSA (ATCC 33592) = assay: MIC determination and sensitization fold on MRSA; assay type: cell-based, methicillin-resistant Staphylococcus aureus; settings: MRSA, rifampicin
Protocol: Bacteria strains: E. coli (ATCC 25922), A. baumannii (ATCC 17978), K. pneumoniae (43816), S. maltophilia (ATCC 31559), S. typhimurium (ATCC 14028), C. werkmanii (ATCC 51114), S. aureus (ATCC 12600) and methicillin-resistant Staphylococcus aureus (MRSA, ATCC 33592) strains were purchased from ATCC. NR698 was provided.
Bacteria culture and MICs determination: Gram-negative bacteria were cultured in Mueller Hinton II cation-adjusted broth. Gram-positive bacteria were cultured in LB broth. Mycobacterium smegmatis was cultured in Middlebrook 7H9 Broth. MICs of antibiotics itself were determined by performing two-fold serial dilutions of antibiotics. MICs of antibiotics in the presence of bacterial sensitizers were determined by performing two-fold serial dilutions of antibiotics with or without a constant concentration of bacterial sensitizers. The MICs tests were performed on 96-well plates with a final volume of 200 μl Mueller Hinton II cation-adjusted broth in each well. Each well was inoculated with 5×10^5 CFU/ml bacteria and was incubated for 24 h at 37° C. with continuous shaking of 200 rpm. The bacterial density was then determined by OD600. Bacterial growth %=OD600 of antibiotic treatment group/OD600 of antibiotic non-treatment group. MICs was determined as the concentrations that inhibit more than 90% of bacteria growth.
Sensitization fold determination and FIC index calculations: Sensitization fold=MIC of antibiotic only/MIC of antibiotic with bacterial sensitizer. […] Since the MICs were determined by performing two-fold serial dilutions of antibiotic, so the sensitization fold can is the times of 2.
Bacteria strains (as indicated in Table 5B) were cultured with rifampicin at various concentrations in the presence or absence of 10 μM of the indicated compound for 20 h at 37° C. The MIC, sensitization, cytotoxicity, and MIC on mycobacteria were tested according to methods described herein. […] The sensitization activities of compounds on MRSA were tested using rifampicin. The sensitization activities of compounds on E. coli were tested using rifampicin.

E. coli (ATCC 25922) = assay: MIC determination, sensitization fold and FIC index on E. coli; assay type: cell-based; settings: for MIC: Escherichia coli, ATCC25922, 24 h; for MIC of AB with MD-124: MD-124 concentration 5 μg/ml; for Sensitization: compound up to 25 μM
Summary of the method: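 E. coli in cation-adjusted Mueller Hinton II, 5×10^5 CFU/ml, 24 h at 37 °C shaking; rifampicin two-fold serial dilutions with or without fixed sensitizer (10 μM).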

B. subtilis = assay: MIC determination and sensitization fold on B. subtilis; assay type: cell-based; settings: B. subtilis; for Sensitization fold: erythromycin; for MIC: Bacillus subtilis, 24 h, compound alone, read-out: MIC
K. pneumoniae (43816) = assay: MIC, sensitization fold and FIC index on K. pneumoniae; assay type: cell-based; settings: for MIC of AB with 5 μg/ml MD-124: K. pneumoniae; for Sensitization fold with 5 μg/ml MD-124: K. pneumoniae towards the antibiotic
[1] = system: A. baumannii (ATCC 17978); assay: MIC, sensitization fold and FIC index on A. baumannii; assay type: cell-based; settings: A. baumannii towards the antibiotic
M. smegmatis = assay: MIC on mycobacteria; assay type: cell-based, Mycobacterium smegmatis; settings: Mycolicibacterium smegmatis, read-out: MIC on mycobacteria
[2] = Cytotoxicity in H9c2 cells (CCK-8); assay type: cell-based; settings: rat, H9c2 cells; H9c2 cell line
Summary of the method: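 H9c2 cells were grown in DMEM with 10% FBS, seeded the day before, and exposed to a range of di-amidine concentrations for 24 h at 37 °C, 5% CO2. Viability was read by CCK-8 after 3 h at 37 °C as absorbance at 450 nm.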

[3] = system: NDM-1 expressing E. coli strain; assay: microbe, parasite or virus in culture; assay type: cell-based; settings: NDM-1 expressing E. coli towards the antibiotic
[4] = IC50 of Table 7 (cell line not stated); assay type: cell-based
[5] = Cytotoxicity on mammalian cells (CCK-8), HEK293; assay type: cell-based; settings: human, HEK293 cells; HEK293 cell line; 24 h
Protocol: as §1

[6] = Cytotoxicity on mammalian cells (CCK-8), NIH3T3; assay type: cell-based; settings: mouse, NIH3T3 cells, 3T3 cell line
Protocol: as §1

[7] = 10 μM compound, rifampicin as the antibiotic (Table 6)
[8] = E. coli, rifampicin, compound at 10 μM
[9] = E. coli, rifampicin, compound at 25 μM
[10] = E. coli towards the antibiotic, MD-124 5 μg/ml
[11] = E. coli (wild type), antibiotic alone, read-out: MIC of AB only
[12] = E. coli, rifampicin, 10 μg/ml bacterial sensitizer

Compound: Cc1cc(COc2ccc(C(=N)N)cc2F)cc(COc2ccc(C(=N)N)cc2F)c1 [MD-120, 4,4′-(((5-methyl-1,3-phenylene)bis(methylene))bis(oxy))bis(3-fluorobenzimidamide) dihydrochloride]
CC50 (HEK293 cells): 100 µM
pIC50 (HEK293 cells): 4.00
CC50 (NIH3T3 cells): 100 µM
Sensitization fold (MRSA (ATCC 33592); compound at 6 μM): 4-fold at 6 μM
Sensitization fold (E. coli (ATCC 25922); [7]): 32 fold
Sensitization fold (E. coli (ATCC 25922); [8]): 32-fold at 10 μM
Sensitization fold (E. coli (ATCC 25922); [9]): 64-fold at 25 μM
MIC (E. coli (ATCC 25922)): 100 µM

Compound: Cc1cc(OCc2ccc(C(=N)N)cc2)cc(OCc2ccc(C(=N)N)cc2)c1 [MD-109, 4,4′-(((5-methyl-1,3-phenylene)bis(oxy))bis(methylene))dibenzimidamide dihydrochloride]
CC50 (HEK293 cells): 100 µM
pIC50 (HEK293 cells): 4.00
CC50 (NIH3T3 cells): 100 µM
Sensitization fold (E. coli (ATCC 25922); [7]): 8 fold
Sensitization fold (E. coli (ATCC 25922); [8]): 8-fold at 10 μM
Sensitization fold (E. coli (ATCC 25922); [9]): 32-fold at 25 μM
MIC (E. coli (ATCC 25922)): 100 µM
Sensitization fold (B. subtilis; compound at 12 μM): 32-fold at 12 μM
MIC (B. subtilis): 50 µM

Compound: CC(=O)O[C@H]1C[C@@]2(C)[C@@H](C[C@@H](O)[C@H]3[C@@]4(C)CC[C@@H](O)[C@@H](C)[C@@H]4CC[C@@]32C)/C1=C(\CCC=C(C)C)C(=O)O [Fusidic acid, reference compound]
MIC of AB with 5 μg/ml MD-124 (K. pneumoniae (43816)): 25 µg/mL
Sensitization fold with 5 μg/ml MD-124 (K. pneumoniae (43816)): 4 fold
Sensitization fold with 5 μg/ml MD-124 [1]: 128 fold
Sensitization fold (E. coli (ATCC 25922); [10]): 32 fold
MIC of AB with MD-124 (E. coli (ATCC 25922); E. coli): 6.25 µg/mL
MIC (E. coli (ATCC 25922); [11]): > 200 µg/mL

MIC (M. smegmatis; M. smegmatis): 6 to 12 µM
Compound: N=C(N)c1ccc(OCc2cccc(COc3ccc(C(=N)N)cc3F)c2F)c(F)c1 [DB2558, 1,3-Bis {(4-amidino-2-fluoro)-phenoxymethyl}-2-fluorobenzene dihydrochloride]
CC50 (HEK293 cells): 100 µM
CC50 at 24 h [2]: 50 µM
CC50 (NIH3T3 cells): 100 µM
Sensitization fold (E. coli (ATCC 25922); E. coli, rifampicin, compound at 12 μM): 4-fold at 12 μM.
Sensitization fold (E. coli (ATCC 25922); [9]): 8-fold at 25 μM;
MIC (E. coli (ATCC 25922); E. coli, compound alone, read-out: MIC): 50 µM

Compound: O=C(N[C@H](CO)[C@H](O)c1ccc([N+](=O)[O-])cc1)C(Cl)Cl [Chloramphenicol]
MIC of AB with 5 μg/ml MD-124 (K. pneumoniae (43816)): 1.6 µg/mL
Sensitization fold with 5 μg/ml MD-124 (K. pneumoniae (43816)): >64 fold
Sensitization fold with 5 μg/ml MD-124 [1]: 4 fold
Sensitization fold (E. coli (ATCC 25922); [10]): 8 fold
MIC of AB with MD-124 (E. coli (ATCC 25922); E. coli): 1.6 µg/mL
MIC (E. coli (ATCC 25922); read-out: MIC of AB only): 12.5 µg/mL
Sensitization fold with 5 μg/ml MD-124 [3]: 8 fold

Compound: COc1cc(C(=N)N)ccc1OCc1cc(C)cc(COc2ccc(C(=N)N)cc2OC)c1 [MD-103, 4,4′-(((5-methyl-1,3-phenylene)bis(methylene))bis(oxy))bis(3-methoxybenzimidamide) dihydrochloride]
CC50 (HEK293 cells): 100 µM
pIC50 (HEK293 cells): 4.00
MIC (M. smegmatis): 12.5 µM
CC50 at 24 h [2]: > 100 µM
CC50 (NIH3T3 cells): 100 µM
Sensitization fold (MRSA (ATCC 33592); compound at 6 μM): 2 to 4-fold at 6 μM
Sensitization fold (MRSA (ATCC 33592); compound at 12 μM): 8 to 16-fold at 12 μM,
Sensitization fold (E. coli (ATCC 25922); [7]): 2 fold
Sensitization fold (E. coli (ATCC 25922); [8]): 2-fold at 10 μM
Sensitization fold (E. coli (ATCC 25922); [9]): 4-fold at 25 μM
MIC (E. coli (ATCC 25922)): 50 µM

pIC50 [4]: 4.92
Compound: N=C(N)N/N=C/c1ccc(-c2ccc(-c3ccc(/C=N/NC(=N)N)cc3)s2)cc1 [DB1079]
Sensitization fold (E. coli (ATCC 25922); E. coli, rifampicin, 5 μg/ml bacterial sensitizer): 64^b fold

Compound: COc1cc(OCc2ccc(C(=N)N)cc2)cc(OCc2ccc(C(=N)N)cc2)c1 [MD-126, 4,4′-(((5-methoxy-1,3-phenylene)bis(oxy))bis(methylene))dibenzimidamide dihydrochloride]
CC50 (HEK293 cells): 100 µM
pIC50 (HEK293 cells): 4.00
CC50 (NIH3T3 cells): 100 µM
Sensitization fold (E. coli (ATCC 25922); [7]): 2 fold
Sensitization fold (E. coli (ATCC 25922); [8]): 2-fold at 10 μM
MIC (E. coli (ATCC 25922)): > 50 µM

Compound: N=C(N)c1ccc(-c2ccc(-c3ccc(C(=N)N)cc3)[se]2)cc1 [DB1213]
pIC50 [4]: 4.30
Sensitization fold (E. coli (ATCC 25922); [12]): 32^a fold

Compound: CCC[C@@H]1C[C@@H](C(=O)N[C@@H]([C@H]2O[C@H](SC)[C@H](O)[C@@H](O)[C@H]2O)[C@H](C)Cl)N(C)C1 [Clindamycin, reference compound]
MIC of AB with 5 μg/ml MD-124 (K. pneumoniae (43816)): 25 µg/mL
MIC of AB with MD-124 (E. coli (ATCC 25922); E. coli): 3.2 µg/mL
MIC (E. coli (ATCC 25922); [11]): 200 µg/mL

Compound: N=C(N)c1ccc(OCc2ccc(COc3ccc(C(=N)N)cc3)cc2)cc1 [MD-101, 1,4-Bis [(4-amidino)-phenoxymethyl]benzene dihydrochloride]
CC50 at 24 h [5]: > 100 µM
MIC (M. smegmatis): 3 to 6 µM
CC50 at 24 h [2]: 50 µM
CC50 at 24 h [6]: > 100 µM
Sensitization (E. coli (ATCC 25922); E. coli, rifampicin): No effect up to 25 μM
MIC (E. coli (ATCC 25922)): 100 µM
Sensitization fold (B. subtilis; compound at 3 μM): 2-fold at 3 μM.
Sensitization fold (B. subtilis; compound at 6 μM): 4-fold at 6 μM,
MIC (B. subtilis): 25 µM

pIC50 [4]: 4.00
Compound: N=C(N)Nc1ccc(-c2ccc(-c3nc4ccc(NC(=N)N)cc4[nH]3)o2)cc1 [DB704]
Sensitization fold (E. coli (ATCC 25922); [12]): 16^a fold

Compound: Cc1cc(COc2ccc(C(=N)NC(C)C)cc2)cc(COc2ccc(C(=N)NC(C)C)cc2)c1 [MD-102, 4,4′-(((5-methyl-1,3-phenylene)bis(methylene))bis(oxy))bis(N-isopropylbenzimidamide) dihydrochloride]
CC50 at 24 h [5]: > 100 µM
MIC (M. smegmatis): 3 µM
CC50 at 24 h [2]: > 100 µM
CC50 at 24 h [6]: > 100 µM
Sensitization fold (MRSA (ATCC 33592); compound at 4 μM): 32-fold at 4 μM
Sensitization fold (E. coli (ATCC 25922); [7]): 1 fold
Sensitization (E. coli (ATCC 25922); E. coli, rifampicin): No effect up to 25 μM.
MIC (E. coli (ATCC 25922)): 50 µM
sensitization activity (E. coli (ATCC 25922); rifampicin, compound at up to 10 μM): no sensitization activity
Sensitization fold (B. subtilis; compound at 2 μM): 4-fold at 2 μM

Reference: patent US20230105108A1, “COMPOUNDS FOR THE TREATMENT OF BACTERIAL INFECTIONS AND POTENTIATION OF ANTIBIOTICS” (GEORGIA STATE UNIVERSITY RESEARCH FOUNDATION, INC., priority 2019, published 2023)
